This is an account of results in patent US20030170890A1, “Pathologically modified myocardial cell, production and use thereof” (priority 1999, published 2003).

Format in all cases: cell-based
For assay [1], the system named is cardiomyocytes from the neonatal rat. As to the kind of experiment: Effect of inhibitors on DCMAG-1 translocation in the immunofluorescence test. The note with it: cells stimulated with LIF; for effect on translocation of DCMAG-1 into the sarcomere (in words): ISO and ET-1; for % dotted pattern / % filamentous pattern / % in Z-bands: ISO and ET-1 (single dosage) 48 h, without or with 30 μM LY294002, 50 μM SB 203580, 15 nM Go 6976, 50 μM PD98059, ±SEM. On the procedure:
Neonatal rat cardiomyocytes were prepared as in Example 3 and seeded in a density of 1×10^5 cells per 1.5 cm well (reaction chamber in a cell culture dish). The cell culture dishes contained 1.5 cm cover glasses (Schubert und Weiβ) coated with 1% gelatin solution. The cells were incubated after 24 hours with DMEM and subsequently in maintenance medium with or without stimulus (LIF/ISO and ET-1, concentration as above for single dosage) for 48 hours.
In order to determine the signal transduction pathways required for translocation of DCMAG-1, the stimulated cells were incubated with inhibitors, namely 30 μM LY294002 (Sigma), 50 μM SB 203580 (Sigma), 15 nM Go 6976 (Alexis) or 50 μM PD98059 (NEB) for 48 h (after 24 h, the medium and inhibitors were renewed because the activity of the inhibitors was limited to 24 h in aqueous solution).
After 48 h, the cells were fixed with 4% paraformaldehyde, permeabilized with 0.2% Triton-X100 and stained with anti-DCMAG (polyclonal, own production, 1:500) or α-actinin (as control, Sigma, 1:500) and visualized with anti-mouse or anti-rabbit Cy3 (Jackson Labs, USA) in immunofluorescence. In order to measure the effect of the inhibitors, the cells were visually classified and counted.

Assay [2] has as its system neonatal rat cardiomyocytes. As to the kind of experiment: Stimulation of isolated neonatal rat cardiomyocytes, recruitment of DCMAG-1 into the sarcomere (immunofluorescence). To be noted: for Sarcomere (recruitment of DCMAG-1), 1 × stimulation: 48 hours; for DCMAG-1 stain pattern of stimulated cells (in words): immunofluorescence, anti-DCMAG-1 antibody. An excerpt: Primary cardiomyocytes were isolated from neonatal rats to carry out a hypertrophy experiment. The rats were from one to seven days old and were sacrificed by cervical dislocation. To isolate the cardiomyocytes, the ventricles of the contracting hearts were removed and dissociated using the “Neonatal Cardiomyocyte Isolation System” (Worthington Biochemicals Corporation, Lakewood, N.J.). […] The next day, the trypsin treatment was stopped by adding a trypsin inhibitor, and then a collagenase treatment was carried out at 37° C. for 45 minutes. The cells were dissociated by pipetting, passed through a “cell strainer” (70 μm) and centrifuged at 60×g twice for 5 min. The cell pellet was then taken up in 20 ml of conventional adhesion medium. Seeding took place at a density of 6×10^4 cells/cm^2 on gelatin-coated (Sigma, Deisenhofen) tissue culture dishes or cover glasses. The next morning, the medium was removed by aspiration and, after washing with DMEM (conventional cell culture medium) twice, replaced by cultivation medium.
The cells were stimulated two to six hours after the medium was changed. This was done by treating the cardiomyocytes with various stimulants or combinations of stimulants (see Table 1) for 48 hours, followed by analysis. It was possible to observe the progress of a single stimulation on the basis of the morphological changes in the cells (hypertrophy). Besides the morphological changes, immunofluorescence analyses were also used to determine hypertrophy parameters (DCMAG-1 recruitment).
For the immunofluorescence analysis, the stimulated cardiomyocytes were washed twice with cold PBS and fixed with 3% paraformaldehyde solution in PBS for 20 minutes. After washing again with cold PBS, the cells were incubated twice with 100 mM ammonium chloride in PBS, for 10 min each time, at room temperature. This was followed by a further washing step with cold PBS and incubation with 0.2% Triton-X 100 in PBS at room temperature for 5 min. Washing twice with 0.1% gelatin in PBS was followed by incubation with the first antibody at 37° C. in a “humidity chamber” known to the skilled worker. The first antibody (against the second domain of DCMAG-1) was diluted 1/500 in incubation solution (0.5% Tween-20; 0.5% BSA; in PBS). This was followed after one hour by three washing steps with PBS at room temperature for 5 min each time. The second antibody (obtained from goat, directed against rabbit, Cy3-coupled; Dianova, Hamburg) was diluted 1/200 in incubation solution and likewise incubated with the fixed cells at 37° C. for one hour. After three further washing steps with PBS at room temperature for 5 min each time, and a brief immersion in deionized water, the preparations were covered with a layer of Histosafe (Linaris, Wertheim-Bettingen) and applied to slides. Evaluation took place under a microscope (Axiovert 100S, Cy3 filter set, Zeiss, Göttingen).
Thus, for quantitative evaluation of these stimulation experiments, the recruitment of DCMAG-1 into the sarcomere was measured and categorized as follows: […]

In assay [3] the test system is neonatal rat cardiomyocytes. The experiment in a line: Stimulation of neonatal cardiomyocytes by phorbol ester, DCMAG-1 localization visually classified and counted. The note with it: for % dotted pattern / % filamentous pattern / % in the sarcomere: 48 hours, ±SEM. On the procedure: In these experiments, the cardiomyocytes were prepared as described above and seeded onto cover glasses. Stimulation with various concentrations of PMA was carried out for 48 hours, and the cells were fixed, stained as described above and investigated for DCMAG-1 translocation. The cells were visually classified and counted.

The subject of another assay is Rat cardiomyocytes. As to the kind of experiment: Localization of DCMAG-1 after PMA or triple stimulation (colocalization with α-actinin / MHC). The note with it: double staining with α-actinin or MHC. On the procedure: Since PMA brings about translocation of DCMAG-1 into the sarcomeres just like activation of three signal transduction pathways via their receptors, the sarcomeric structures into which DCMAG-1 was translocated with PMA or triple stimulation was investigated. Colocalization experiments were carried out for this purpose. Rat cardiomyocytes were seeded as described above on cover glasses, and correspondingly stimulated, fixed and stained. With the stains, anti-DCMAG-1 antibody (polyclonal) was mixed with either monoclonal α-actinin (Sigma, 1:500) or monoclonal anti-myosin (heavy chain, MHC, Sigma, 1:500). The secondary antibodies used were FITC-anti-mouse (1:250) and Texas Red-anti-rabbit (1:50; both from Dianova).
Evaluation took place with the aid of a fluorescence microscope, a Fuji-CCD camera and Aida software or with the aid of a confocal microscope (Pascal from Zeiss) and LSM software (Zeiss).

[4] abbreviates: single dosage: PE 100 μM, LIF 1 ng/ml, ET-1 10 nM, ISO 10 μM, IN 100 nM.

No end group written: not given here.

Take `Cn1c2ccccc2c2c3c(c4c5ccccc5n(CCC#N)c4c21)CNC3=O` [Gö, Gö 6976]: in assay [1], the “effect on translocation of DCMAG-1 into the sarcomere (in words)” value is given as “reducing the translocation”, the “% dotted pattern” value came to 29.0 ± 2.1%, the “% filamentous pattern” value came to 49.0 ± 0.0% and the “% in Z-bands” value came out at 22.0 ± 2.1%.
For `CC(C)NCC(O)c1ccc(O)c(O)c1` (stereo not drawn) [ISO, isoproterenol], the “Sarcomere (recruitment of DCMAG-1), 1 × stimulation” value (shortened to “Sarcomere … 1 × stimulation”) is recorded as “(−) (fewer than 2 cells per cover glass)” in assay [2] (2 × single dosage); “(+) (2 to 5 cells per cover glass)” in assay [2] (3 × single dosage); “(+) (2 to 5 cells per cover glass)” in assay [2] (4 × single dosage); “(+) (2 to 5 cells per cover glass)” in assay [2] (5 × single dosage); “(−) (fewer than 2 cells per cover glass)” in assay [2] (setting [4]). In addition, in assay [2] (ISO: high concentrations), the “recruitment of DCMAG-1 into the sarcomere (in words, summary of Table 1)” value was “slight effect”.
Regarding `COc1cccc(-c2cc(=O)c3ccccc3o2)c1N` [PD, PD98059], in assay [1], the “effect on translocation of DCMAG-1 into the sarcomere (in words)” value was “reducing the translocation”, the “% dotted pattern” value came out at 58.5 ± 10.7%, the “% filamentous pattern” value was 31.6 ± 7.4% and the “% in Z-bands” value is 10.1 ± 3.4%.
Take “ET-1: hormone / signal molecule stimulating the ETA and ETB endothelin receptors (CSCSSLMDKECVYFCHLDIIW; not fully specified (bridges); ends and bridges not checked; UniProt P05305 53-73, looked up)”: the “Sarcomere … 1 × stimulation” value in assay [2] (2 × single dosage), in assay [2] (3 × single dosage), in assay [2] (4 × single dosage) and in assay [2] (setting [4]) was “(−) (fewer than 2 cells per cover glass)” throughout. The “DCMAG-1 stain pattern of stimulated cells (in words)” value (shortened to “DCMAG-1 stain pattern”) in assay [2] is on record as “filamentous structures”.
Turning to `O=c1cc(N2CCOCC2)oc2c(-c3ccccc3)cccc12` [LY, LY294002], in assay [1], the “% dotted pattern” value was 46.6 ± 5.3%, the “% filamentous pattern” value is given as 41.2 ± 4.1% and the “% in Z-bands” value turned out to be 11.3 ± 2.0%.
In the case of `CCCCCCCCCCCCCC(=O)O[C@@H]1[C@@H](C)[C@@]2(O)[C@@H](C=C(CO)C[C@]3(O)C(=O)C(C)=C[C@@H]23)[C@@H]2C(C)(C)[C@]12OC(C)=O` [PMA, phorbol myristate acetate], in assay [3] (1 nM PMA), the “translocation of DCMAG-1 protein (in words)” value is reported as “translocated into the sarcomere”, the “% dotted pattern” value came to 46.0 ± 2.0%, the “% filamentous pattern” value was determined as 20.0 ± 1.0% and the “% in the sarcomere” value is on record as 34.0 ± 3.0%. In assay [3] (100 nM PMA), the “% dotted pattern” value came out at 47.0 ± 4.0%, the “% filamentous pattern” value amounted to 13.0 ± 2.0% and the “% in the sarcomere” value was found to be 40.0 ± 2.0%. The “sarcomeric structure into which DCMAG-1 is translocated” value with Rat cardiomyocytes is recorded as “translocates into the M-line”.
Regarding `CNC[C@H](O)c1cccc(O)c1` [PE, phenylephrine], the “Sarcomere … 1 × stimulation” value in assay [2] (2 × single dosage), in assay [2] (3 × single dosage), in assay [2] (4 × single dosage), in assay [2] (5 × single dosage) and in assay [2] (setting [4]) was “(−) (fewer than 2 cells per cover glass)” each time. Besides, in assay [2], the “DCMAG-1 stain pattern” value was “distributed uniformly over the sarcoplasm”.
In the case of `C[S+]([O-])c1ccc(-c2nc(-c3ccncc3)c(-c3ccc(F)cc3)[nH]2)cc1` (stereo not drawn) [SB, SB 203580], in assay [1], the “% dotted pattern” value stood at 22.5 ± 5.3%, the “% filamentous pattern” value was found to be 35.5 ± 0.3% and the “% in Z-bands” value is listed as 41.0 ± 4.9%.
In the case of insulin, the “Sarcomere … 1 × stimulation” value in assay [2] (2 × single dosage) and in assay [2] (setting [4]) was “(−) (fewer than 2 cells per cover glass)” each time.
As to “LIF: cytokine acting via the LIF receptor, assigned to the interleukin-6 family”, the “Sarcomere … 1 × stimulation” value in assay [2] (2 × single dosage) and in assay [2] (setting [4]) was “(−) (fewer than 2 cells per cover glass)” in each case. Moreover, the “DCMAG-1 stain pattern” value in assay [2] is on record as “distributed uniformly over the sarcoplasm”. In assay [2] (single stimulation), the “shape of stimulated cells” value is on record as “elongate shape”.
